Experimental data taken from patent publication US12065442B2, “Tropomyosin receptor kinase (TRK) degradation compounds and methods of use” (Cullgen (Shanghai), Inc., priority 2018, dated 2024).
pIC50: −log10 of the molar value.

System: KM12 cells
Test: Cell viability assay (CellTiter-Glo) in KM12 cells
Format: cell-based
Settings: Homo sapiens, 72 h; Table 2; KM12 cell viability, CellTiter-Glo, 3 days; read-out: IC50

Structure (SMILES)	pIC50
Cc1ncsc1-c1ccc(CNC(=O)[C@@H]2C[C@@H](O)CN2C(=O)[C@@H](NC(=O)CCCCCCCCCC(=O)N2CCN(c3cccc(-c4cnc5ccc(N6CCC[C@@H]6c6cccc(F)c6)nn45)n3)CC2)C(C)(C)C)cc1 [CPD-022, (2S,4R)-1-((S)-2-(11-(4-(6-(6-((R)-2-(3-Fluorophenyl)pyrrolidin-1-yl)imidazo[1,2-b]pyridazin-3-yl)pyridin-2-yl)piperazin-1-yl)-11-oxoundecanamido)-3,3-dimethylbutanoyl)-4-hydroxy-N-(4-(4-methylthiazol-5-yl)benzyl)pyrrolidine-2-carboxamide]	7.00
Cc1ncsc1-c1ccc(CNC(=O)[C@@H]2C[C@@H](O)CN2C(=O)[C@@H](NC(=O)CCCCCC(=O)N2CCN(c3cccc(-c4cnc5ccc(N6CCC[C@@H]6c6cccc(F)c6)nn45)n3)CC2)C(C)(C)C)cc1 [CPD-004, (2S,4R)-1-((S)-2-(7-(4-(6-(6-((R)-2-(3-Fluorophenyl)pyrrolidin-1-yl)imidazo[1,2-b]pyridazin-3-yl)pyridin-2-yl)piperazin-1-yl)-7-oxoheptanamido)-3,3-dimethylbutanoyl)-4-hydroxy-N-(4-(4-methylthiazol-5-yl)benzyl)pyrrolidine-2-carboxamide]	6.75
O=C1CCC(N2C(=O)c3cccc(NCCOCCC(=O)N4CCN(c5ccc(C(=O)Nc6n[nH]c7ccc(Cc8cc(F)cc(F)c8)cc67)c(NC6CCOCC6)c5)CC4)c3C2=O)C(=O)N1 (stereo not shown) [CPD-030, N-(5-(3,5-Difluorobenzyl)-1H-indazol-3-yl)-4-(4-(3-(2-((2-(2,6-dioxopiperidin-3-yl)-1,3-dioxoisoindolin-4-yl)amino)ethoxy)propanoyl)piperazin-1-yl)-2-((tetrahydro-2H-pyran-4-yl)amino)benzamide]	7.69
Cc1ncsc1-c1ccc(CNC(=O)[C@@H]2C[C@@H](O)CN2C(=O)[C@@H](NC(=O)COCCOCCOCC(=O)N2CCN(c3ccc(C(=O)Nc4n[nH]c5ccc(Cc6cc(F)cc(F)c6)cc45)c(NC4CCOCC4)c3)CC2)C(C)(C)C)cc1 [CPD-058, (2S,4R)-1-((S)-2-(tert-butyl)-14-(4-(4-((5-(3,5-Difluorobenzyl)-1H-indazol-3-yl)carbamoyl)-3-((tetrahydro-2H-pyran-4-yl)amino)phenyl)piperazin-1-yl)-4,14-dioxo-6,9,12-trioxa-3-azatetradecanoyl)-4-hydroxy-N-(4-(4-methylthiazol-5-yl)benzyl)pyrrolidine-2-carboxamide]	< 6.00
O=C(CN1CCN(c2ccc(C(=O)Nc3n[nH]c4ccc(Cc5cc(F)cc(F)c5)cc34)c(NC3CCOCC3)c2)CC1)NCCOCCOCCOCCNc1cccc2c1C(=O)N(C1CCC(=O)NC1=O)C2=O (stereo not shown) [CPD-064, N-(5-(3,5-difluorobenzyl)-1H-indazol-3-yl)-4-(4-(14-((2-(2,6-dioxopiperidin-3-yl)-1,3-dioxoisoindolin-4-yl)amino)-2-oxo-6,9,12-trioxa-3-azatetradecyl)piperazin-1-yl)-2-((tetrahydro-2H-pyran-4-yl)amino)benzamide]	7.83
Cc1ncsc1-c1ccc(CNC(=O)[C@@H]2C[C@@H](O)CN2C(=O)[C@@H](NC(=O)CCCC(=O)N2CCN(c3ccc(C(=O)Nc4n[nH]c5ccc(Cc6cc(F)cc(F)c6)cc45)c(NC4CCOCC4)c3)CC2)C(C)(C)C)cc1 [CPD-036, (2S,4R)-1-((S)-2-(5-(4-(4-((5-(3,5-Difluorobenzyl)-1H-indazol-3-yl)carbamoyl)-3-((tetrahydro-2H-pyran-4-yl)amino)phenyl)piperazin-1-yl)-5-oxopentanamido)-3,3-dimethylbutanoyl)-4-hydroxy-N-(4-(4-methylthiazol-5-yl)benzyl)pyrrolidine-2-carboxamide]	6.52

Same assay, conditions: Homo sapiens, 72 h; Table 3; KM12 cell viability, CellTiter-Glo, 3 days; read-out: IC50

Structure (SMILES)	pIC50
O=C1CCC(N2C(=O)c3ccc(CN4CCN(c5cccc(-c6cnc7ccc(N8CCC[C@@H]8c8cccc(F)c8)nn67)n5)CC4)cc3C2=O)C(=O)N1 (stereo partly drawn) [TR-197, 2-(2,6-Dioxopiperidin-3-yl)-5-((4-(6-(6-((R)-2-(3-fluorophenyl)pyrrolidin-1-yl)imidazo[1,2-b]pyridazin-3-yl)pyridin-2-yl)piperazin-1-yl)methyl)isoindoline-1,3-dione]	7.17
O=C1CCC(N2C(=O)c3ccc(NCCOCCOCCOCCOCCC(=O)N4CCN(c5cccc(-c6cnc7ccc(N8CCC[C@@H]8c8cccc(F)c8)nn67)n5)CC4)cc3C2=O)C(=O)N1 (stereo partly drawn) [TR-120, 2-(2,6-Dioxopiperidin-3-yl)-5-((15-(4-(6-(6-((R)-2-(3-fluorophenyl)pyrrolidin-1-yl)imidazo[1,2-b]pyridazin-3-yl)pyridin-2-yl)piperazin-1-yl)-15-oxo-3,6,9,12-tetraoxapentadecyl)amino)isoindoline-1,3-dione]	8.00
O=C1CCC(N2C(=O)c3ccc(NC4CN(c5cccc(-c6cnc7ccc(N8CCC[C@@H]8c8cccc(F)c8)nn67)n5)C4)cc3C2=O)C(=O)N1 (stereo partly drawn) [TR-175, 2-(2,6-Dioxopiperidin-3-yl)-5-((1-(6-(6-((R)-2-(3-fluorophenyl)pyrrolidin-1-yl)imidazo[1,2-b]pyridazin-3-yl)pyridin-2-yl)azetidin-3-yl)amino)isoindoline-1,3-dione]	7.39
O=C(CN1CCN(c2ccc(C(=O)Nc3n[nH]c4ccc(Cc5cc(F)cc(F)c5)cc34)c(NC3CCOCC3)c2)CC1)NCCOCCOCCOCCOCCOCCNc1ccc2c(c1)C(=O)N(C1CCC(=O)NC1=O)C2=O (stereo not shown) [TR-166, N-(5-(3,5-Difluorobenzyl)-1H-indazol-3-yl)-4-(4-(20-((2-(2,6-dioxopiperidin-3-yl)-1,3-dioxoisoindolin-5-yl)amino)-2-oxo-6,9,12,15,18-pentaoxa-3-azaicosyl)piperazin-1-yl)-2-((tetrahydro-2H-pyran-4-yl)amino)benzamide]	8.36
O=C(CN1CCN(c2ccc(C(=O)Nc3n[nH]c4ccc(Cc5cc(F)cc(F)c5)cc34)c(NC3CCOCC3)c2)CC1)NCCOCCOCCOCCNc1ccc2c(c1)C(=O)N(C1CCC(=O)NC1=O)C2=O (stereo not shown) [TR-163, N-(5-(3,5-Difluorobenzyl)-1H-indazol-3-yl)-4-(4-(14-((2-(2,6-dioxopiperidin-3-yl)-1,3-dioxoisoindolin-5-yl)amino)-2-oxo-6,9,12-trioxa-3-azatetradecyl)piperazin-1-yl)-2-((tetrahydro-2H-pyran-4-yl)amino)benzamide]	8.20
O=C(CN1CCN(c2cccc(-c3cnc4ccc(N5CCC[C@@H]5c5cccc(F)c5)nn34)n2)CC1)NCCCNc1cccc2c1C(=O)N(C1CCC(=O)NC1=O)C2=O (stereo partly drawn) [TR-109, N-(3-((2-(2,6-dioxopiperidin-3-yl)-1,3-dioxoisoindolin-4-yl)amino)propyl)-2-(4-(6-(6-((R)-2-(3-fluorophenyl)pyrrolidin-1-yl)imidazo[1,2-b]pyridazin-3-yl)pyridin-2-yl)piperazin-1-yl)acetamide]	8.44
O=C(CN1CCN(c2ccc(C(=O)Nc3n[nH]c4ccc(Cc5cc(F)cc(F)c5)cc34)c(NC3CCOCC3)c2)CC1)NCCOCCNc1cccc2c1C(=O)N(C1CCC(=O)NC1=O)C2=O (stereo not shown) [TR-151, N-(5-(3,5-Difluorobenzyl)-1H-indazol-3-yl)-4-(4-(2-((2-(2-((2-(2,6-dioxopiperidin-3-yl)-1,3-dioxoisoindolin-4-yl)amino)ethoxy)ethyl)amino)-2-oxoethyl)piperazin-1-yl)-2-((tetrahydro-2H-pyran-4-yl)amino)benzamide]	8.51
O=C(CN1CCN(c2cccc(-c3cnc4ccc(N5CCC[C@@H]5c5cccc(F)c5)nn34)n2)CC1)NCCCCNc1cccc2c1C(=O)N(C1CCC(=O)NC1=O)C2=O (stereo partly drawn) [TR-107, N-(4-((2-(2,6-dioxopiperidin-3-yl)-1,3-dioxoisoindolin-4-yl)amino)butyl)-2-(4-(6-(6-((R)-2-(3-fluorophenyl)pyrrolidin-1-yl)imidazo[1,2-b]pyridazin-3-yl)pyridin-2-yl)piperazin-1-yl)acetamide]	8.08
O=C1CCC(N2C(=O)c3ccc(NCCOCCC(=O)N4CCN(c5ccc(C(=O)Nc6n[nH]c7ccc(Cc8cc(F)cc(F)c8)cc67)c(NC6CCOCC6)c5)CC4)cc3C2=O)C(=O)N1 (stereo not shown) [TR-143]	8.25

Same assay, conditions: Homo sapiens, 72 h; Table 4; KM12 cell viability, CellTiter-Glo, 3 days; read-out: IC50

Structure (SMILES)	pIC50
Cn1c(=O)n(C2CCC(=O)NC2=O)c2ccc(OCCN3CCN(c4cccc(-c5cnc6ccc(N7CCC[C@@H]7c7cccc(F)c7)nn56)n4)CC3)cc21 (stereo partly drawn) [TR-246, 3-(5-(2-(4-(6-(6-((R)-2-(3-fluorophenyl)pyrrolidin-1-yl)imidazo[1,2-b]pyridazin-3-yl)pyridin-2-yl)piperazin-1-yl)ethoxy)-3-methyl-2-oxo-2,3-dihydro-1H-benzo[d]imidazol-1-yl)piperidine-2,6-dione]	7.00
O=C1CCC(N2C[C@H](c3ccc(CN4CCN(c5cccc(-c6cnc7ccc(N8CCC[C@@H]8c8cccc(F)c8)nn67)n5)CC4)cc3)OC2=O)C(=O)N1 (stereo partly drawn) [TR-229, 3-((S)-5-(4-((4-(6-(6-((R)-2-(3-Fluorophenyl)pyrrolidin-1-yl)imidazo[1,2-b]pyridazin-3-yl)pyridin-2-yl)piperazin-1-yl)methyl)phenyl)-2-oxooxazolidin-3-yl)piperidine-2,6-dione]	7.29
O=C1CCC(N2C(=O)c3ccc(NC(=O)CN4CCN(c5cccc(-c6cnc7ccc(N8CCC[C@@H]8c8cccc(F)c8)nn67)n5)CC4)cc3C2=O)C(=O)N1 (stereo partly drawn) [TR-233, N-(2-(2,6-Dioxopiperidin-3-yl)-1,3-dioxoisoindolin-5-yl)-2-(4-(6-(6-((R)-2-(3-fluorophenyl)pyrrolidin-1-yl)imidazo[1,2-b]pyridazin-3-yl)pyridin-2-yl)piperazin-1-yl)acetamide]	8.30

Same assay, conditions: Homo sapiens, KM12, 72 h

Structure (SMILES)	pIC50
Cn1c(=O)n(C2CCC(=O)NC2=O)c2cccc(CCCCN3CCN(c4cccc(-c5cnc6ccc(N7CCC[C@@H]7c7cccc(F)c7)nn56)n4)CC3)c21 (stereo partly drawn) [TR-241, 3-(4-(4-(4-(6-(6-((R)-2-(3-fluorophenyl)pyrrolidin-1-yl)imidazo[1,2-b]pyridazin-3-yl)pyridin-2-yl)piperazin-1-yl)butyl)-3-methyl-2-oxo-2,3-dihydro-1H-benzo[d]imidazol-1-yl)piperidine-2,6-dione]	8.05
